Results reported in patent publication US20100168179A1, “6-ALKENYL-, 6-ALKINYL- AND 6-EPOXY-EPOTHILONE DERIVATIVES, PROCESS FOR THEIR PRODUCTION, AND THEIR USE IN PHARMACEUTICAL PREPARATIONS” (priority 1999, published 2010).

Tests used:
[1] = test system: NCl/ADR; assay: growth inhibition of multi-drug-resistant NCl/ADR carcinoma cell line, crystal-violet assay; assay type: cell-based, human; conditions: for IC50: crystal-violet assay, multi-drug-resistant line; for Selectivity = IC50-(NCl/ADR): IC50 (MCF-7): Table 1, ratio NCl/ADR to MCF-7
Source text: (§1) In Vitro Activity of Epothilone Derivatives on Human Tumor Cell Lines
(§2) a) IC50 values [nM] for the growth inhibition of human MCF-7-breast and multi-drug-resistant NCl/ADR-carcinoma cell lines of epothilone derivatives with 13Z-unsaturated in the crystal-violet assay in comparison to Taxol.
(§3) b) IC50 values [nM] for the growth inhibition of human MCF-7-breast- and multi-drug-resistant NCl/ADR carcinoma cell lines of epothilone derivative with 13,14-α-epoxide, which was formed from the 13-Z-configured double bond in the crystal-violet assay in comparison to Taxol.
(§4) c) IC50 values [nM] for the growth inhibition of human MCF-7-breast- and multi-drug-resistant NCl/ADR-carcinoma cell lines of epothilone derivatives with 13,14-epoxide, which was formed from the 13-E-configured double bond, in a crystal-violet assay in comparison to Taxol.

[2] = test system: MCF-7; assay: growth inhibition of human MCF-7 breast carcinoma cell line, crystal-violet assay; assay type: cell-based
Source text: as §1, §2, §3, §4

[3] = Table 2, 13,14-α-epoxide formed from the 13-Z-configured double bond
[4] = Table 2, ratio NCl/ADR to MCF-7
[5] = Table 1, epothilone derivatives with 13Z-unsaturated
[6] = Table 3, 13,14-epoxide formed from the 13-E-configured double bond
[7] = Table 3, ratio NCl/ADR to MCF-7

Structure (SMILES): C=CCC[C@H]1C(=O)C(C)(C)[C@@H](O)CC(=O)O[C@H](/C(C)=C/c2ccccn2)C[C@@H]2O[C@]2(C)CCC[C@H](C)[C@@H]1O [Example 5A, (1S,3S(E),7S,10R,11S,12S,16R)-7,11-Dihydroxy-10-(but-3-en-1-yl)-3-(1-methyl-2-(2-pyridyl)ethenyl)-8,8,12,16-tetramethyl-4,17-dioxabicyclo[14.1.0]heptadecane-5,9-dione]
- IC50 [1, 3]: 3.8 nM
- Selectivity = IC50-(NCl/ADR): IC50-(MCF-7) [1, 4]: 1.2
- IC50 [2, 3]: 3.1 nM

Structure (SMILES): C#CCC[C@H]1C(=O)C(C)(C)[C@@H](O)CC(=O)O[C@H](/C(C)=C/c2ccccn2)C/C=C(/C)CCC[C@H](C)[C@@H]1O [Example 1, (4S,7R,8S,9S,13Z,16S(E))-4,8-Dihydroxy-16-(1-methyl-2-(2-pyridyl)ethenyl)-1-oxa-5,5,9,13-tetramethyl-7-(but-3-in-1-yl)-cyclohexadec-13-ene-2,6-dione]
- IC50 [1, 5]: 75 nM
- Selectivity = IC50-(NCl/ADR): IC50 (MCF-7) [1]: 2.5
- IC50 [2, 5]: 30 nM

Structure (SMILES): C=CC[C@H]1C(=O)C(C)(C)[C@@H](O)CC(=O)O[C@H](/C(C)=C/c2csc(C)n2)C/C=C(/C)CCC[C@H](C)[C@@H]1O [Example 9, (4S,7R,8S,9S,13Z,16S(E))-4,8-Dihydroxy-16-(1-methyl-2-(2-methylthiazol-4-yl)ethenyl)-1-oxa-5,5,9,13-tetramethyl-7-(prop-2-en-1-yl)-cyclohexadec-13-ene-2,6-dione]
- IC50 [1, 5]: 41 nM
- Selectivity = IC50-(NCl/ADR): IC50 (MCF-7) [1]: 2.4
- IC50 [2, 5]: 17 nM

Structure (SMILES): C#CCC[C@H]1C(=O)C(C)(C)[C@@H](O)CC(=O)O[C@H](/C(C)=C/c2ccccn2)C[C@@H]2O[C@]2(C)CCC[C@H](C)[C@@H]1O [Example 4A, (1S,3S(E),7S,10R,11S,12S,16R)-7,11-Dihydroxy-10-(but-3-in-1-yl)-3-(1-methyl-2-(2-pyridyl)ethenyl)-8,8,12,16-tetramethyl-4,17-dioxabicyclo[14.1.0]heptadecane-5,9-dione]
- IC50 [1, 3]: 9.1 nM
- Selectivity = IC50-(NCl/ADR): IC50-(MCF-7) [1, 4]: 7.0
- IC50 [2, 3]: 1.3 nM

Structure (SMILES): C=CC[C@H]1C(=O)C(C)(C)[C@@H](O)CC(=O)O[C@H](/C(C)=C/c2csc(C)n2)CC2O[C@@]2(C)CCC[C@H](C)[C@@H]1O (single isomer, unassigned) [Example 12B or A]
- IC50 [1, 6]: 53 nM
- Selectivity = IC50-(NCl/ADR): IC50-(MCF-7) [1, 7]: 11.0
- IC50 [2, 6]: 4.8 nM

Structure (SMILES): C#CCC[C@H]1C(=O)C(C)(C)[C@@H](O)CC(=O)O[C@H](/C(C)=C/c2ccccn2)C[C@@H]2OC2(C)CCC[C@H](C)[C@@H]1O (single isomer, unassigned) [Example 6A or B]
- IC50 [1, 6]: 68 nM
- Selectivity = IC50-(NCl/ADR): IC50-(MCF-7) [1, 7]: 15.8
- IC50 [2, 6]: 4.3 nM

Structure (SMILES): CC(=O)O[C@H]1C(=O)[C@@]2(C)[C@H]([C@H](OC(=O)c3ccccc3)[C@]3(O)C[C@H](OC(=O)[C@H](O)[C@@H](NC(=O)c4ccccc4)c4ccccc4)C(C)=C1C3(C)C)[C@]1(OC(C)=O)CO[C@@H]1C[C@@H]2O [Taxol, reference compound]
- IC50 ([1]; Homo sapiens, Table 1, epothilone derivatives with 13Z-unsaturated): > 100 nM
- Selectivity = IC50-(NCl/ADR): IC50 (MCF-7) [1]: >28.6
- IC50 [1, 3]: > 100 nM
- Selectivity = IC50-(NCl/ADR): IC50-(MCF-7) [1, 4]: >29
- IC50 [1, 6]: > 100 nM
- Selectivity = IC50-(NCl/ADR): IC50-(MCF-7) [1, 7]: >29
- action on the multi-drug-resistant cell line NCl/ADR ([1]; in words, in comparison to Taxol): not exhibited
- IC50 ([2]; Homo sapiens, MCF7, Table 1, epothilone derivatives with 13Z-unsaturated): 3.5 nM

Structure (SMILES): C=CC[C@H]1C(=O)C(C)(C)[C@@H](O)CC(=O)O[C@H](/C(C)=C/c2csc(C)n2)C[C@H]2O[C@]2(C)CCC[C@H](C)[C@@H]1O [Example 12A or B, (1R,3S(E),7S,10R,11S,12S,16R)-7,11-Dihydroxy-10-(prop-2-en-1-yl)-3-(1-methyl-2-(2-methylthiazol-4-yl)ethenyl)-8,8,12,16-tetramethyl-4,17-dioxabicyclo[14.1.0]heptadecane-5,9-dione]
- IC50 [1, 6]: 61 nM
- Selectivity = IC50-(NCl/ADR): IC50-(MCF-7) [1, 7]: 1.5
- IC50 [2, 6]: 40 nM

Structure (SMILES): C#CC[C@H]1C(=O)C(C)(C)[C@@H](O)CC(=O)O[C@H](/C(C)=C/c2ccccn2)C/C=C(/C)CCC[C@H](C)[C@@H]1O [Example 13, (4S,7R,8S,9S,13Z,16S(E))-4,8-Dihydroxy-16-(1-methyl-2-(2-pyridyl)ethenyl)-1-oxa-5,5,9,13-tetramethyl-7-(prop-2-in-1-yl)-cyclohexadec-13-ene-2,6-dione]
- IC50 [2, 5]: 34 nM

Structure (SMILES): C#CC[C@H]1C(=O)C(C)(C)[C@@H](O)CC(=O)O[C@H](/C(F)=C/c2csc(C)n2)C[C@@H]2O[C@@]2(C)CCC[C@H](C)[C@@H]1O [Example 26A or B, (1S,3S(Z),7S,10R,11S,12S,16S)-7,11-Dihydroxy-3-(1-fluoro-2-(2-methyl-4-thiazolyl)ethenyl)-10-(prop-2-in-1-yl)-8,8,12,16-tetramethyl-4,17-dioxabicyclo[14.1.0]heptadecane-5,9-dione]
- IC50 [1, 6]: 60 nM
- Selectivity = IC50-(NCl/ADR): IC50-(MCF-7) [1, 7]: 3.3
- IC50 [2, 6]: 18 nM

Structure (SMILES): C#CC[C@H]1C(=O)C(C)(C)[C@@H](O)CC(=O)O[C@H](/C(F)=C/c2coc(C)n2)C/C=C(/C)CCC[C@H](C)[C@@H]1O [Example 27, (4S,7R,8S,9S,13Z,16S(Z))-4,8-Dihydroxy-16-(1-fluoro-2-(2-methyloxazol-4-yl)ethenyl)-7-(prop-2-in-1-yl)-1-oxa-5,5,9,13-tetramethyl-cyclohexadec-13-ene-2,6-dione]
- IC50 [1, 5]: 41 nM
- Selectivity = IC50-(NCl/ADR): IC50 (MCF-7) [1]: 1.6
- IC50 [2, 5]: 25 nM

Structure (SMILES): C#CC[C@H]1C(=O)C(C)(C)[C@@H](O)CC(=O)O[C@H](/C(F)=C/c2csc(C)n2)C/C=C(/C)CCC[C@H](C)[C@@H]1O [Example 23, (4S,7R,8S,9S,13Z,16S(Z))-4,8-Dihydroxy-16-(1-fluoro-2-(2-methylthiazol-4-yl)ethenyl)-7-(prop-2-in-1-yl)-1-oxa-5,5,9,13-tetramethyl-cyclohexadec-13-ene-2,6-dione]
- IC50 [1, 5]: 62 nM
- Selectivity = IC50-(NCl/ADR): IC50 (MCF-7) [1]: 5.6
- IC50 [2, 5]: 11 nM

Structure (SMILES): C#CC[C@H]1C(=O)C(C)(C)[C@@H](O)CC(=O)O[C@H](/C(F)=C/c2csc(C)n2)C[C@@H]2O[C@]2(C)CCC[C@H](C)[C@@H]1O [Example 25, (1S,3S(Z),7S,10R,11S,12S,16R)-7,11-Dihydroxy-3-(1-fluoro-2-(2-methyl-4-thiazolyl)ethenyl)-10-(prop-2-in-1-yl)-8,8,12,16-tetramethyl-4,17-dioxabicyclo[14.1.0]heptadecane-5,9-dione]
- IC50 [1, 3]: 11 nM
- Selectivity = IC50-(NCl/ADR): IC50-(MCF-7) [1, 4]: 4.8
- IC50 [2, 3]: 2.3 nM

Structure (SMILES): C=CCC[C@H]1C(=O)C(C)(C)[C@@H](O)CC(=O)O[C@H](/C(C)=C/c2ccccn2)C/C=C(/C)CCC[C@H](C)[C@@H]1O [Example 2, (4S,7R,8S,9S,13Z,16S(E))-4,8-Dihydroxy-16-(1-methyl-2-(2-pyridyl)ethenyl)-1-oxa-5,5,9,13-tetramethyl-7-(but-3-en-1-yl)-cyclohexadec-13-ene-2,6-dione]
- IC50 [1, 5]: 70 nM
- Selectivity = IC50-(NCl/ADR): IC50 (MCF-7) [1]: 2.8
- IC50 [2, 5]: 25 nM

Structure (SMILES): C=CC[C@H]1C(=O)C(C)(C)[C@@H](O)CC(=O)O[C@H](c2ccc3oc(C)nc3c2)C/C=C(/C)CCC[C@H](C)[C@@H]1O [Example 21, (4S,7R,8S,9S,13Z,16S(E))-4,8-Dihydroxy-16-(2-methyl-benzoxazol-5-yl)-1-oxa-5,5,9,13-tetramethyl-7-(prop-2-en-1-yl)-cyclohexadec-13-ene-2,6-dione]
- IC50 [2, 5]: 32 nM

Structure (SMILES): C=CC[C@H]1C(=O)C(C)(C)[C@@H](O)CC(=O)O[C@H](/C(C)=C/c2ccccn2)C/C=C(/C)CCC[C@H](C)[C@@H]1O [Example 15, (4S,7R,8S,9S,13Z,16S(E))-4,8-Dihydroxy-16-(1-methyl-2-(2-pyridyl)ethenyl)-1-oxa-5,5,9,13-tetramethyl-7-(prop-2-en-1-yl)-cyclohexadec-13-ene-2,6-dione]
- IC50 [2, 5]: 25 nM

Structure (SMILES): C=CC[C@H]1C(=O)C(C)(C)[C@@H](O)CC(=O)O[C@H](/C(C)=C/c2csc(C)n2)C[C@@H]2O[C@]2(C)CCC[C@H](C)[C@@H]1O [Example 10A, (1S,3S(E),7S,10R,11S,12S,16R)-7,11-Dihydroxy-10-(prop-2-en-1-yl)-3-(1-methyl-2-(2-methylthiazol-4-yl)ethenyl)-8,8,12,16-tetramethyl-4,17-dioxabicyclo[14.1.0]heptadecane-5,9-dione]
- IC50 [1, 3]: 3.6 nM
- Selectivity = IC50-(NCl/ADR): IC50-(MCF-7) [1, 4]: 3.0
- IC50 [2, 3]: 1.2 nM
